Consider three compounds from paper PMC4063187 (Journal of the American Chemical Society, 2014).

Like-named read-outs stand apart in the source and are kept apart here.

Test [1] has as its target T1, ecDHFR (wild-type, l-DHFR) (Escherichia coli, UniProt P0ABQ4).
T1 sequence (P0ABQ4 1-159): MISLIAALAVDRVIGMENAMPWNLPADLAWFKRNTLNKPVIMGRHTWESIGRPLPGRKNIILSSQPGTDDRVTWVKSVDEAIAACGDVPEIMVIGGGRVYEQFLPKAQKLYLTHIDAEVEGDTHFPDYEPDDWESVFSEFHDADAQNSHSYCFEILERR
Kind of test: steady-state absorbance at […] nm. Type of test: biochemical. Conditions: read-out: 25 °C, pH 7 / l-DHFR, MTEN buffer pH 7, 25 °C.

The target in test [2] is T1, ecDHFR (wild-type, l-DHFR). Kind of test: stopped-flow fluorescence. The test is classed as binding.
The target in test [3] is T1, ecDHFR (wild-type, l-DHFR). Description: stopped-flow tryptophan fluorescence quenching, koff/kon. The test is classed as binding.

For the compound `Nc1nc2c(c(=O)[nH]1)N=C(CNc1ccc(C(=O)N[C@@H](CCC(=O)O)C(=O)O)cc1)CN2` [DHF], the Km in test [1] (100 μM NADPH) was 0.53 ± 0.04 µM.
The term Kd denotes the concentration at which binding is half-saturated. In turn, `NC(=O)C1=CN([C@@H]2O[C@H](COP(=O)(O)OP(=O)(O)OC[C@H]3O[C@@H](n4cnc5c(N)ncnc54)[C@H](OP(=O)(O)O)[C@@H]3O)[C@@H](O)[C@H]2O)C=CC1` [NADPH] returned a Kd in test [2] of 180 ± 90 nM. The Km in test [1] (100 μM DHF) turned out to be 7.2 ± 0.8 µM.
As for `Nc1nc2ncc(CNc3ccc(C(=O)N[C@@H](CCC(=O)O)C(=O)O)cc3)nc2c(=O)[nH]1` [FA], the Kd in test [3] came out at 3220 ± 90 nM.
